Source: PMC7869707 (European Journal of Medicinal Chemistry, 2021)

Assays:
[1] = system: VSV-G PsV; assay type: cell-based
[2] = system: SARS-CoV-2 PsV; test: microbe, parasite or virus in culture; assay type: cell-based; details: for IC50: Severe acute respiratory syndrome coronavirus 2, 293T/ACE2, 48 h, read-out: IC50 (50% inhibitory concentration) against infection of 293T-ACE2 cells by SARS-CoV-2 PsV
[3] = target: SARS-CoV-2 S-trimer (Severe acute respiratory syndrome coronavirus 2, UniProt P0DTC2); test: biochemical; assay type: binding
[4] = system: 293T-ACE2 cells; test: Cytotoxicity assay; assay type: cell-based; details: MTT
[5] = system: SARS-CoV-2 S protein mediated membrane fusion of Vero-E6 cells; assay type: cell-based
[6] = target: SARS-CoV-2 S binding to the ACE2 receptor (Severe acute respiratory syndrome coronavirus 2, UniProt P0DTC2)
[7] = target: SARS-CoV-2 S2 subunit (Severe acute respiratory syndrome coronavirus 2, UniProt P0DTC2); assay type: binding
[8] = system: Vero-E6 cells; test: Cytotoxicity assay; assay type: cell-based; details: MTT

Q: `C[C@@H]1O[C@@H](O[C@H]2[C@H](O[C@H]3CC[C@]4(C)[C@H]5CC=C6[C@@H]7CC(C)(C)CC[C@]7(C(=O)NCc7cccs7)CC[C@@]6(C)[C@]5(C)CC[C@H]4C3(C)C)O[C@H](CO)[C@@H](O[C@@H]3O[C@@H](C)[C@H](O)[C@@H](O)[C@H]3O)[C@@H]2O)[C@H](O)[C@H](O)[C@H]1O` [Compound 12i, N-{3β-O-[2,4-di-O-(a-L-rhamnopyranosyl)-β-D-glucopyranosyl]-olean-12-en-28-oyl}-2-thiophenemethylamine] was tested. Which “Inhibition of VSV-G pseudoviral transduction” value [1] did it give?
A: no effect

Q: What about the IC50 [2] of the same compound?
A: < 6 µM

Q: What does the source list for `C[C@@H]1O[C@@H](O[C@H]2[C@H](O[C@H]3CC[C@]4(C)[C@H]5CC=C6[C@@H]7CC(C)(C)CC[C@]7(C(=O)NCc7ccccc7)CC[C@@]6(C)[C@]5(C)CC[C@H]4C3(C)C)O[C@H](CO)[C@@H](O[C@@H]3O[C@@H](C)[C@H](O)[C@@H](O)[C@H]3O)[C@@H]2O)[C@H](O)[C@H](O)[C@H]1O` [Compound 12f, N-{3β-O-[2,4-di-O-(a-L-rhamnopyranosyl)-β-D-glucopyranosyl]-olean-12-en-28-oyl}-benzylamine]?
A: Kd [3]: 0.94 µM; Cytotoxicity against 293T-ACE2 cells [4]: negligible cytotoxicity; Inhibition of membrane fusion mediated by SARS-CoV-2 S protein [5]: remarkably inhibit; Effect on SARS-CoV-2 S binding to the ACE2 receptor [6]: no effect; Fold higher affinity with S2 subunit in relation to S1 subunit [7]: more than 1000 fold; Inhibition of VSV-G pseudoviral transduction [1]: no inhibition; Cytotoxicity against Vero-E6 cells [8]: negligible cytotoxicity

Q: With `COc1ccccc1NC(=O)[C@]12CCC(C)(C)C[C@H]1C1=CC[C@@H]3[C@@]4(C)CC[C@H](O[C@@H]5O[C@H](CO)[C@@H](O[C@@H]6O[C@@H](C)[C@H](O)[C@@H](O)[C@H]6O)[C@H](O)[C@H]5O[C@@H]5O[C@@H](C)[C@H](O)[C@@H](O)[C@H]5O)C(C)(C)[C@@H]4CC[C@@]3(C)[C@]1(C)CC2` [Compound 12b, N-{3β-O-[2,4-di-O-(a-L-rhamnopyranosyl)-β-D-glucopyranosyl]-olean-12-en-28-oyl}-2-methoxyaniline] as the compound, how does the “Inhibition of VSV-G pseudoviral transduction” value [1] read?
A: no effect

Q: What about the IC50 [2] of the same compound?
A: < 6 µM

Q: `C[C@@H]1O[C@@H](O[C@H]2[C@H](O[C@H]3CC[C@]4(C)[C@H]5CC=C6[C@@H]7CC(C)(C)CC[C@]7(C(=O)NCc7ccco7)CC[C@@]6(C)[C@]5(C)CC[C@H]4C3(C)C)O[C@H](CO)[C@@H](O[C@@H]3O[C@@H](C)[C@H](O)[C@@H](O)[C@H]3O)[C@@H]2O)[C@H](O)[C@H](O)[C@H]1O` [Compound 12h, N-{3β-O-[2,4-di-O-(a-L-rhamnopyranosyl)-β-D-glucopyranosyl]-olean-12-en-28-oyl}-2-furyl-methylamin] was tested. Which “Potency against SARS-CoV-2 PsV” value [2] did it give?
A: lacked potency

Q: What does the source list for `C[C@@H]1O[C@@H](O[C@H]2[C@H](O[C@H]3CC[C@]4(C)[C@H]5CC=C6[C@@H]7CC(C)(C)CC[C@]7(C(=O)NCc7ccccc7F)CC[C@@]6(C)[C@]5(C)CC[C@H]4C3(C)C)O[C@H](CO)[C@@H](O[C@@H]3O[C@@H](C)[C@H](O)[C@@H](O)[C@H]3O)[C@@H]2O)[C@H](O)[C@H](O)[C@H]1O` [Compound 12k, N-{3β-O-[2,4-di-O-(a-L-rhamnopyranosyl)-β-D-glucopyranosyl]-olean-12-en-28-oyl}-2-fluorobenzylamine]?
A: Inhibition of VSV-G pseudoviral transduction [1]: no effect; IC50 [2]: < 6 µM

Q: With `C[C@@H]1O[C@@H](O[C@H]2[C@H](O[C@H]3CC[C@]4(C)[C@H]5CC=C6[C@@H]7CC(C)(C)CC[C@]7(C(=O)NCc7ccccn7)CC[C@@]6(C)[C@]5(C)CC[C@H]4C3(C)C)O[C@H](CO)[C@@H](O[C@@H]3O[C@@H](C)[C@H](O)[C@@H](O)[C@H]3O)[C@@H]2O)[C@H](O)[C@H](O)[C@H]1O` [Compound 12g, N-{3β-O-[2,4-di-O-(a-L-rhamnopyranosyl)-β-D-glucopyranosyl]-olean-12-en-28-oyl}-2-pyridinemethanamine] as the compound, how does the “Potency against SARS-CoV-2 PsV” value [2] read?
A: loss of potency

Q: `C[C@@H]1O[C@@H](O[C@H]2[C@H](O[C@H]3CC[C@]4(C)[C@H]5CC=C6[C@@H]7CC(C)(C)CC[C@]7(C(=O)OCc7ccccc7)CC[C@@]6(C)[C@]5(C)CC[C@H]4C3(C)C)O[C@H](CO)[C@@H](O[C@@H]3O[C@@H](C)[C@H](O)[C@@H](O)[C@H]3O)[C@@H]2O)[C@H](O)[C@H](O)[C@H]1O` [Compound 2, 3β-O-[2,4-di-O-(α-L-rhamnopyranosyl)-β-D-glucopyranosyl]-olean-12-en-28-oic acid benzyl ester] was tested. Which “Cytotoxicity against 293T-ACE2 cells” value [4] did it give?
A: moderate cytotoxicity
